Source: patent US8957058B2, “Insecticidal pyrrolidin-yl-aryl-carboxamides” (Syngenta Participations AG, priority 2010, dated 2015)

Experiments:
Format in all cases: in vivo
[1] = test system: Plutella xylostella (Diamond Back Moth); assay: Plutella xylostella L2 larvae test on artificial diet; details: enantiomer comparison, 6 days incubation
Experimental: […] After drying, the MTP's were infested with L2 larvae (7-12 per well). After an incubation period of 6 days, samples were checked for larval mortality and growth regulation. […] After drying, the MTPs were infested with L2 larvae (7-12 per well). After an incubation period of 6 days, samples were checked for larval mortality and growth regulation.

[2] = test system: Spodoptera littoralis (Egyptian Cotton Leaf Worm); assay: Spodoptera littoralis (systemic) test via salad grown on treated agar; details: 5 days after infestation
Source text: Spodoptera littoralis (Systemic) (Egyptian Cotton Leaf Worm) Test compounds were applied by pipette into 24 well plates and mixed with agar. Salad seeds were placed on the agar and the multi well plate is closed by another plate which contains also agar. After 7 days the roots have absorbed the compound and the salad has grown into the lid plate. The salad leafs were now cut off into the lid plate. Spodoptera eggs were pipette through a plastic stencil on a humid gel blotting paper and the plate closed with it. The samples are checked for mortality, repellent effect, feeding behavior, and growth regulation 5 days after infestation.

[3] = test system: Diabrotica balteata (Corn Root Worm); assay: Diabrotica balteata L2 larvae test on artificial diet; details: for % Control at 12.5 ppm, Diabrotica balteata / % Control at 200 ppm, Diabrotica balteata: enantiomer comparison, 5 days incubation; for Control, Diabrotica balteata (Corn root worm): application rate 12 ppm
Experimental: Diabrotica balteata (Corn Root Worm): A 24-well microtiter plate (MTP) with artificial diet was treated with test solutions at an application rate of 200 ppm (concentration in well […]) by pipetting. After drying, the MTP's were infested with L2 larvae (6-10 per well). After an incubation period of 5 days, samples were checked for larval mortality and growth regulation. Diabrotica balteata (Corn Root Worm): A 24-well microtiter plate (MTP) with artificial diet was treated with test solutions at an application rate of 12.5 ppm (concentration in well […]) by pipetting. After drying, the MTP's were infested with L2 larvae (6-10 per well). After an incubation period of 5 days, samples were checked for larval mortality and growth regulation.

[4] = test system: Tetranychus urticae (Two-Spotted Spider Mite); assay: Tetranychus urticae bean leaf disc spray test; details: for % Control at 12.5 ppm, Tetranychus urticae / % Control at 200 ppm, Tetranychus urticae: enantiomer comparison, checked 8 days later; for Control, Tetranychus urticae (Two-spotted spider mite): application rate 12 ppm
Source text: […] After drying, the leaf discs are infested with mite populations of mixed ages. 8 days later, discs are checked for egg mortality, larval mortality, and adult mortality. […] After drying, the leaf discs are infested with mite populations of mixed ages. 8 days later, discs are checked for egg mortality, larval mortality, and adult mortality.

[5] = test system: Thrips tabaci (Onion Thrips); assay: Thrips tabaci sunflower leaf disc spray test; details: enantiomer comparison, 7 days incubation
Experimental: Thrips tabaci (Onion Thrips): Sunflower leaf discs were placed on agar in a 24-well microtiter plate and sprayed with test solutions at an application rate of 200 ppm. After drying, the leaf discs were infested with a thrip population of mixed ages. After an incubation period of 7 days, samples were checked for mortality. Thrips tabaci (Onion Thrips): Sunflower leaf discs were placed on agar in a 24-well microtiter plate and sprayed with test solutions at an application rate of 50 ppm. After drying, the leaf discs were infested with a thrip population of mixed ages. After an incubation period of 7 days, samples were checked for mortality.

[6] = test system: Heliothis virescens (Tobacco Budworm); assay: Heliothis virescens egg test on artificial diet; details: for % Control at 12.5 ppm, Heliothis virescens / % Control at 200 ppm, Heliothis virescens: enantiomer comparison, 4 days incubation
Experimental: Heliothis virescens (Tobacco Budworm): Eggs (0-24 h old) were placed in 24-well microtiter plate on artificial diet and treated with test solutions at an application rate of 200 ppm (concentration in well 18 ppm) by pipetting. After an incubation period of 4 days, samples were checked for egg mortality, larval mortality, and growth regulation. Heliothis virescens (Tobacco Budworm): Eggs (0-24 h old) were placed in 24-well microtiter plate on artificial diet and treated with test solutions at an application rate starting at 200 ppm (concentration in well 18 ppm) by pipetting. After an incubation period of 4 days, samples were checked for egg mortality, larval mortality, and growth regulation.

SMILES | % Control at 12.5 ppm, Plutella xylostella [1] [%] | % Control at 200 ppm, Plutella xylostella [1] [%] | % Control at 12.5 ppm, Spodoptera littoralis [2] [%] | % Control at 200 ppm, Spodoptera littoralis [2] [%] | % Control at 12.5 ppm, Diabrotica balteata [3] [%] | % Control at 200 ppm, Diabrotica balteata [3] [%] | % Control at 12.5 ppm, Tetranychus urticae [4] [%] | % Control at 200 ppm, Tetranychus urticae [4] [%] | % Control at 200 ppm, Thrips tabaci [5] [%] | % Control at 12.5 ppm, Heliothis virescens [6] [%] | % Control at 200 ppm, Heliothis virescens [6] [%] | Control, Diabrotica balteata (Corn root worm) [3] [%] | Control, Tetranychus urticae (Two-spotted spider mite) [4] [%] | Control, Heliothis virescens (Tobacco budworm) ([6]; application rate 0.8 ppm) [%] | Control, Heliothis virescens (Tobacco budworm) ([6]; application rate 3 ppm) [%]
Cc1cc(N2CCC(c3cc(Cl)cc(Cl)c3)(C(F)(F)F)C2)ccc1C(=O)NC1CS(=O)(=O)C1 (single isomer, unassigned) [Compound A5a] | 100 | 100 | 100 | 100 | 100 | 100 | 100 | 100 | 90 | 100 | 100 | – | – | – | –
Cc1cc(N2CCC(c3cc(Cl)cc(Cl)c3)(C(F)(F)F)C2)ccc1C(=O)NC1CS(=O)(=O)C1 (single isomer, unassigned) [Compound A5b] | 0 | 100 | 0 | 100 | 0 | 0 | 0 | 0 | 0 | 0 | 100 | – | – | – | –
Cc1cc(N2CCC(c3cc(Cl)cc(Cl)c3)(C(F)(F)F)C2)ccc1C(=O)NCc1ccccn1 (centres unmarked) [Compound 1-4 of WO08128711, reference compound] | – | – | – | – | – | – | – | – | – | – | – | 0 | 0 | 0 | 50
Cc1cc(N2CCC(c3cc(Cl)cc(Cl)c3)(C(F)(F)F)C2)ccc1C(=O)NC1C[S+]([O-])C1 (centres unmarked) [Compound A1] | – | – | – | – | – | – | – | – | – | – | – | 80 | 100 | 100 | –
Cc1cc(N2CCC(c3cc(Cl)cc(Cl)c3)(C(F)(F)F)C2)ccc1C(=O)NC1CSC1 (centres unmarked) [Compound A4] | – | – | – | – | – | – | – | – | – | – | – | 100 | 100 | – | 80
Cc1cc(N2CCC(c3cc(Cl)cc(Cl)c3)(C(F)(F)F)C2)ccc1C(=O)NC1CS(=O)(=O)C1 (centres unmarked) [Compound A5] | – | – | – | – | – | – | – | – | – | – | – | 100 | 100 | – | 80
